How the values were obtained:
[1] = background statement; cited from earlier work
[2] = tested on: metabolic syndrome model rats (SHR/Ndmer); assay: Measurement of adiponectin in blood (ELISA); assay type: in vivo, rat; details: for blood adiponectin concentration: Ax 50 mg/kg oral, SHR/Ndmer rats
Protocol: I ml of blood was exsanguinated from a rat. After centrifugation, the obtained supernatant was subjected to ELISA kit for measuring adiponectin (Otsuka Pharmaceutical Inc.) to measure the adiponectin concentration in blood
(§1) Female 5 weeks old, metabolic syndrome model rats (SHR/Ndmer) (a product of Sankyo laboratories Co., Ltd.) were purchased and reared for about a week in a laboratory animals rearing room of a constant temperature (24 ± 1 °C), a constant humidity (54 ± 5 %) and a 12 hour light-dark cycle, and thereafter used for the experiment. Water and feed were provided ad lib to them. In the experiment, each group consists of 6 rats with proviso that 5 Wistar rats as normal group were used. Sample was orally administered to all rats in the afternoon.
(§2) • 1) Control group: olive oil was administered in an amount of 1 ml per 1 kg of body weight of rat. • 2) Astaxanthin 5 mg/Kg administration group: astaxanthin was administered in an amount of 5 mg in admixture with I ml of olive oil per 1 kg of body weight of rat. • 3) Astaxanthin 50 mg/Kg administration group: astaxanthin was administered in an amount of 50 mg in admixture with I ml of olive oil per 1 kg of body weight of rat. • 4) Normal group: olive oil was administered in an amount of 1 ml per 1 kg of body weight of Wister rat

[3] = tested on: metabolic syndrome model rats (SHR/Ndmer); assay: Measurement of blood pressure (tail artery, plethysmography); assay type: in vivo, rat; details: for diastolic blood pressure / systolic blood pressure: SHR/Ndmer rats
Protocol: Rats were broken in the apparatus since a week ago from the beginning of the experiment. They were bound slightly under a non-anesthetic and cuff with a built-in infrared sensor (THC-1, a product of Softron Co., Ltd. was applied to the tail artery to measure pressure (maximum, minimum and an average blood pressures) by a plethysmography. The measurement of blood pressure was conducted in the afternoon.
as §1, §2

[4] = tested on: metabolic syndrome model rats (SHR/Ndmer); assay: Blood glucose value after insulin injection (insulin resistance test); assay type: in vivo, rat; details: for blood glucose value after insulin infection: SHR/Ndmer rats, fasted, 120 minutes after 0.5U insulin
Protocol: Water only was given to rats ad lib from the day before the measurement not so as to give any feed to them. In the afternoon, 0.5 U of insulin was injected to them in an amount of 1 ml per 1 kg of the body weight, and the exsanguinations were conducted at given times to measure the glucose concentration in blood using a […] Π (a product of Horive Ltd). Female 5 weeks old, metabolic syndrome model rats ([…] product of Sankyo laboratories Co., Ltd.) were purchased and reared for about a week in a laboratory animals rearing room of a constant temperature (24 ± 1 °C), a constant humidity (54 ± 5 %) and a 12 hour light-dark cycle, and thereafter used for the experiment. Water and feed were provided ad lib to them. In the experiment, each group consists of 6 rats with proviso that 5 Wistar rats as normal group were used. Sample was orally administered to all rats in the afternoon. • 1) Control group: olive oil was administered in an amount of 1 ml per 1 kg of body weight of rat. • 2) Astaxanthin 5 mg/Kg administration group: astaxanthin was administered in an amount of 5 mg in admixture with I ml of olive oil per 1 kg of body weight of rat. • 3) Astaxanthin 50 mg/Kg administration group: astaxanthin was administered in an amount of 50 mg in admixture with I ml of olive oil per 1 kg of body weight of rat. • 4) Normal group: olive oil was administered in an amount of 1 ml per 1 kg of body weight of Wister rat

[5] = Change in body weight of rats under oral astaxanthin; assay type: in vivo, rat; details: for body weight: SHR/Ndmer rats
Protocol: as §1, §2

[6] = tested on: metabolic syndrome model rats (SHR/Ndmer); assay: Measurement of fat in blood (triglyceride G test); assay type: in vivo, rat; details: for blood fat: Ax 50 mg/kg oral, SHR/Ndmer rats
Protocol: The supernatant formed after centrifugation was subjected to the triglyceride G test using an enzyme (a product of Wako Pure Chemical Industries, Ltd.) to measure the fat concentration in blood.
as §1, §2

[7] = tested on: metabolic syndrome model rats (SHR/Ndmer); assay: Fasting blood glucose value; assay type: in vivo, rat; details: overnight fasting
Protocol: Water only was given to rats ad lib from the day before the measurement not so as to give any feed to them. In the afternoon, 0.5 U of insulin was injected to them in an amount of 1 ml per 1 kg of the body weight, and the exsanguinations were conducted at given times to measure the glucose concentration in blood using a Antisence Π (a product of Horive Ltd).
as §1, §2

[8] = Ax 5 mg/kg oral, at 6 weeks old
[9] = Ax 5 mg/kg oral, at 9 weeks old
[10] = Ax 5 mg/kg oral, at 12 weeks old
[11] = Ax 5 mg/kg oral, at 24 weeks old
[12] = Ax 50 mg/kg oral, at 6 weeks old
[13] = Ax 50 mg/kg oral, at 9 weeks old
[14] = Ax 50 mg/kg oral, at 12 weeks old
[15] = Ax 50 mg/kg oral, at 24 weeks old
[16] = Ax 5 mg/kg oral, at 7 weeks old
[17] = Ax 5 mg/kg oral, at 17 weeks old
[18] = Ax 50 mg/kg oral, at 7 weeks old
[19] = Ax 50 mg/kg oral, at 17 weeks old

In the case of `CC1=C(/C=C/C(C)=C/C=C/C(C)=C/C=C/C=C(C)/C=C/C=C(C)/C=C/C2=C(C)C(=O)C(O)CC2(C)C)C(C)(C)CC(O)C1=O` (stereo not drawn) [Ax, 3,3'-dihydroxy-β, β-carotene-4, 4'-dione], the “antioxidative action relative to vitamin E (α-tocopherol)” value [1] is given as “about 1000 times”, the “antioxidative action relative to β-carotene” value [1] is given as “about 40 times” and the blood adiponectin concentration ([2]; at 7 weeks old) is given as 7.08 ± 0.43 µg/mL. The blood adiponectin concentration ([2]; at 12 weeks old) was 8.21 ± 0.14 µg/mL, the “adiponectin concentration in blood (in words)” value ([2]; administration of astaxanthin, summary of Table 7) was “increased in comparison with the control group” and the diastolic blood pressure [3, 8] was 121 mmHG. It also gave a systolic blood pressure [3, 8] of 144 mmHG, a diastolic blood pressure [3, 9] of 130 mmHG and a systolic blood pressure [3, 9] of 161 mmHG. The diastolic blood pressure [3, 10] was 129 mmHG, the systolic blood pressure [3, 10] was 159 mmHG and the diastolic blood pressure [3, 11] was 155 mmHG. It also gave a systolic blood pressure [3, 11] of 185 mmHG, a diastolic blood pressure [3, 12] of 121 mmHG and a systolic blood pressure [3, 12] of 147 mmHG. For the same molecule, the diastolic blood pressure [3, 13] was 128 mmHG, the systolic blood pressure [3, 13] was 160 mmHG and the diastolic blood pressure [3, 14] was 119 mmHG. It also gave a systolic blood pressure [3, 14] of 154 mmHG, a diastolic blood pressure [3, 15] of 156 mmHG and a systolic blood pressure [3, 15] of 189 mmHG. For the same molecule, the “rise in blood pressure (in words)” value ([3]; administration of astaxanthin, summary of Tables 2 and 3) was “suppresses the rise in blood pressure”, the “blood glucose value after insulin infection” value [4, 16] was 98.0 mg/dL and the “blood glucose value after insulin infection” value [4, 9] was 85.6 mg/dL. For the same molecule, the “blood glucose value after insulin infection” value [4, 10] was 81.5 mg/dL, the “blood glucose value after insulin infection” value [4, 17] was 82.2 mg/dL and the “blood glucose value after insulin infection” value [4, 18] was 106.3 mg/dL. For the same molecule, the “blood glucose value after insulin infection” value [4, 13] was 81.0 mg/dL, the “blood glucose value after insulin infection” value [4, 14] was 73.8 mg/dL and the “blood glucose value after insulin infection” value [4, 19] was 72.0 mg/dL. The “insulin resistance (in words)” value ([4]; administration of astaxanthin, summary of Table 5) was “significantly improved”, the body weight [5, 8] was 156 g and the body weight [5, 9] was 259 g. For the same molecule, the body weight ([5]; Ax 5 mg/kg oral, at 13 weeks old) was 378 g, the body weight [5, 17] was 468 g and the body weight [5, 12] was 148 g. For the same molecule, the body weight [5, 13] was 250 g, the body weight ([5]; Ax 50 mg/kg oral, at 13 weeks old) was 368 g and the body weight [5, 19] was 459 g. The “change in the body weight (in words)” value ([5]; administration of astaxanthin, summary of Table 1) was “no change in the body weight”, the blood fat ([6]; at 7 weeks old) was 139.5 ± 15.9 mg/dL and the blood fat ([6]; at 12 weeks old) was 304.8 ± 9.9 mg/dL. For the same molecule, the “increase in the blood fat with the passage of time (in words)” value ([6]; SHR/Ndmer, versus control group, summary of Table 6) was “suppresses the increase in the blood fat”, the “fasting blood glucose value” [7, 16] was 132.0 mg/dL and the “fasting blood glucose value” [7, 9] was 98.0 mg/dL. The “fasting blood glucose value” [7, 10] was 88.3 mg/dL, the “fasting blood glucose value” [7, 17] was 108.8 mg/dL and the “fasting blood glucose value” [7, 18] was 135.0 mg/dL. For the same molecule, the “fasting blood glucose value” [7, 13] was 109.0 mg/dL, the “fasting blood glucose value” [7, 14] was 89.3 mg/dL and the “fasting blood glucose value” [7, 19] was 111.8 mg/dL.
